Source: patent publication US12583825B2, “Benzo[h]quinazolin-4-amine and thieno[3,2-h]quinazolin-4-amine derivatives for the treatment of cancer” (Redona Therapeutics, Inc., priority 2020, dated 2026)

Tests used:
recombinant human CLK3 = target: T1, recombinant human CLK3 (Homo sapiens, UniProt P49761); test: CLK3 kinase assay (LANCE Ultra); format: biochemical; settings: 0.5 nM CLK3, 300 μM ATP, 3 hours at 30° C.
T1 construct: purchased Thermo Fisher Scientific PV3826
Description: CLK3 kinase activity was measured using the LANCE® Ultra technology (PerkinElmer) essentially as recommended by the supplier. Briefly, 2.5 μL of test sample at 4× the desired final concentration in 4% DMSO were dispensed into white, low volume, round bottom, 384 well plates (Corning, cat. no. 4512). 5 μL of a mixture containing recombinant human CLK3 (Thermo Fisher Scientific, cat. no. PV3826) and the labeled peptide substrate ULight™-CREBtide (PerkinElmer, cat. no. TRF0107) prepared in 1.33× kinase buffer (Thermo Fisher Scientific, cat. no. PV3189) were then added. Finally, the reactions were started by adding 2.5 μL of a 4× solution of ATP in kinase buffer. The plates were sealed with adhesive foils and incubated for 3 hours at 30° C. in the dark. The final concentrations of CLK3, ULight™—CREBtide, and ATP were 0.5 nM, 50 nM, and 300 μM, respectively. 5 μL of 40 mM EDTA were then added to terminate the reactions. The Eu-anti-phospho-CREB antibody (PerkinElmer, cat. no. TRF0200) diluted in LANCE® detection buffer (PerkinElmer, cat. no. CR97) was then added to a final concentration of 2 nM and the reactions were incubated for 1 hour at room temperature in the dark. The signals were measured using a Synergy 4 reader (BioTek) with a 320/80 nm filter for the excitation and 620/10 nm and 665/8 nm filters for the donor and acceptor emission, respectively. […] IC50 values were calculated by fitting the concentration-response data to a sigmoidal 4-parameter logistic model.

MDA-MB-231 cells = test: MDA-MB-231 proliferation assay; format: cell-based; settings: Homo sapiens, 72 hours, YO-PRO-1 readout
Description: MDA-MB-231 Proliferation Assay
MDA-MB-231 cells were cultivated in DMEM High Glucose (4.5 g/L) with L-Glutamine (BioConcept, cat. no. 1-26F03-I) supplemented with 1% Na-pyruvate (Sigma, cat. no. S8636), 1% Penicillin-Streptomycin (BioConcept, cat. no. 4-01F00H), and 10% FBS (Sigma, cat. no. F9665) using standard techniques. Cells were seeded in black, clear-bottom 384 well plates for tissue culture (Greiner Bio-One, cat. no. 781091) at a density of 750 cells per well in 20 μL medium and the plates were incubated overnight at 37° C. with 5% CO2 prior to treatment. Experimental compounds were serially diluted in DMSO to 200× the desired final concentrations. The solutions were then diluted 1:40 with culture medium and 5 μL aliquots were mixed into the wells containing the cells. The final concentration of DMSO was 0.5%. The plates were incubated for 72 hours and cell numbers were then measured using YO-PRO™-1 Iodide (ThermoFisher Scientific, cat. no. Y3603) essentially as recommended by the manufacturer. […] The plates were incubated at room temperature in the dark for 30 minutes. Fluorescence intensity signals were then measured on a Synergy 4 reader (BioTek) using 485/20 nm and 530/25 nm filters for the excitation and emission, respectively. Relative proliferation values were calculated by normalizing the raw data using DMSO-treated cells (100% proliferation) and the signals obtained from cells that were evaluated at the time of compound addition (0% proliferation). The concentration-response data were fitted to a sigmoidal 4-parameter logistic model with the maximum constrained to 100%.

T1 sequence (P49761 whole entry): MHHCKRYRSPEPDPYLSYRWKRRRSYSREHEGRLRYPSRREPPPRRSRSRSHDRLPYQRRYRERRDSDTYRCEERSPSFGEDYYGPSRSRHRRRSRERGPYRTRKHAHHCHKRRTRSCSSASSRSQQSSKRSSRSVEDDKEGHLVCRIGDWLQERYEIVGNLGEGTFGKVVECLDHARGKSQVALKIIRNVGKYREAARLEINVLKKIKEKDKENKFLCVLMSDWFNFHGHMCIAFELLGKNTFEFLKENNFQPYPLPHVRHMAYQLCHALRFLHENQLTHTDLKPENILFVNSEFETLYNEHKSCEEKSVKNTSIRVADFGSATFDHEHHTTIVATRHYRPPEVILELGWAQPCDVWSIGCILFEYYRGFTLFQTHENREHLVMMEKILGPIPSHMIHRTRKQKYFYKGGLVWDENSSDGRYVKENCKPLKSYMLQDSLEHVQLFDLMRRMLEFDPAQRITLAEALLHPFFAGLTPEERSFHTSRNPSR

IC50 (recombinant human CLK3)	GI50 (MDA-MB-231 cells)	SMILES
18.6 nM	> 2000 nM	CC1(C)/C(=N/OC[C@@H]2CNC(=O)O2)c2cc(OCCO)ccc2-c2ncnc(N)c21 [Example 94, (5S)-5-[[(Z)-[4-amino-8-(2-hydroxyethoxy)-5,5-dimethyl-benzo[h]quinazolin-6-ylidene]amino]oxymethyl]oxazolidin-2-one]
63 nM	> 2000 nM	CC1(C)/C(=N/OCCO)c2cc(Br)ccc2-c2ncnc(N)c21 [Example 86, 2-[(Z)-(4-amino-8-bromo-5,5-dimethyl-benzo[h]quinazolin-6-ylidene)amino]oxyethanol]
< 41 nM	> 2000 nM	COc1ccc2c(c1)/C(=N\OC[C@H]1CC(=O)N(C)C1)C(C)(C)c1c(N)ncnc1-2 [Example 76, (4S)-4-[[(Z)-(4-amino-8-methoxy-5,5-dimethyl-benzo[h]quinazolin-6-ylidene)amino]oxymethyl]-1-methyl-pyrrolidin-2-one]
385 nM	> 2000 nM	COc1ccc2c(c1)/C(=N\OC[C@H]1CNC(=O)C1)C(C)(C)c1c(N)ncnc1-2 [Example 73, (4R)-4-[[(Z)-(4-amino-8-methoxy-5,5-dimethyl-benzo[h]quinazolin-6-ylidene)amino]oxymethyl]pyrrolidin-2-one]
265 nM	> 2000 nM	COc1ccc2c(c1)/C(=N\OCCCN)C(C)(C)c1c(N)ncnc1-2 [Example 59, (6Z)-6-(3-aminopropoxyimino)-8-methoxy-5,5-dimethyl-benzo[h]quinazolin-4-amine]
56.4 nM	1150 nM	CO/N=C1\c2cc(O[C@H]3CC[C@H](N)CC3)sc2-c2ncnc(N)c2C1(C)C [Example 36, (6Z)-8-(trans-4-aminocyclohexoxy)-6-methoxyimino-5,5-dimethyl-thieno[3,2-h]quinazolin-4-amine]
13 nM	1750 nM	CO/N=C1\c2cc(OC3CCNCC3)ccc2-c2ncnc(N)c2C1(C)C [Example 66, (6Z)-6-methoxyimino-5,5-dimethyl-8-(4-piperidyloxy)benzo[h]quinazolin-4-amine]
29.6 nM	1490 nM	CC1(C)/C(=N/OCC(N)=O)c2cc(O[C@H]3CC[C@H](N)CC3)ccc2-c2ncnc(N)c21 [Example 32, 2-[(Z)-[4-amino-8-(trans-4-aminocyclohexoxy)-5,5-dimethyl-benzo[h]quinazolin-6-ylidene]amino]oxyacetamide]
10.9 nM	620 nM	CC1(C)/C(=N/OCC2CNC(=O)O2)c2cc(O[C@H]3CC[C@H](N)CC3)ccc2-c2ncnc(N)c21 (stereo partly drawn) [Example 34, 5-[[(Z)-[4-amino-8-(trans-4-aminocyclohexoxy)-5,5-dimethyl-benzo[h]quinazolin-6-ylidene]amino]oxymethyl]oxazolidin-2-one]
8.8 nM	66.2 nM	CC1(C)/C(=N/OCCOCC(F)(F)F)c2cc(O[C@H]3CC[C@@H](N)CC3)ccc2-c2ncnc(N)c21 [Example 112, (6Z)-8-(cis-4-aminocyclohexoxy)-5,5-dimethyl-6-[2-(2,2,2-trifluoroethoxy)ethoxyimino]benzo[h]quinazolin-4-amine]
92.8 nM	> 2000 nM	CO/N=C1\c2cc(OC)c(Cl)cc2-c2ncnc(N)c2C1(C)C [Example 41, (6Z)-9-chloro-8-methoxy-6-methoxyimino-5,5-dimethyl-benzo[h]quinazolin-4-amine]
10.4 nM	41.3 nM	Nc1ncnc2c1C1(CCCC1)/C(=N/O)c1cc(O[C@H]3CC[C@@H](N)CC3)ccc1-2 [Example 104, 4-amino-8-(cis-4-minocyclohexoxy)spiro[benzo[h]quinazoline-5,1′-cyclopentane]-6-one oxime]
129 nM	> 2000 nM	COc1ccc2c(c1)/C(=N\OC[C@H]1CNC(=O)O1)C(C)(C)c1c(N)ncnc1-2 [Example 12, (5R)-5-[[(Z)-(4-amino-8-methoxy-5,5-dimethyl-benzo[h]quinazolin-6-ylidene)amino]oxymethyl]oxazolidin-2-one]
51.5 nM	> 2000 nM	COCCO/N=C1\c2cc(Br)ccc2-c2ncnc(N)c2C1(C)C [Example 80, (6Z)-8-bromo-6-(2-methoxyethoxyimino)-5,5-dimethyl-benzo[h]quinazolin-4-amine]
34.5 nM	691 nM	CC1(C)/C(=N/OCC#N)c2cc(O[C@H]3CC[C@H](N)CC3)ccc2-c2ncnc(N)c21 [Example 22, [(Z)-[4-amino-8-(trans-4-aminocyclohexoxy)-5,5-dimethyl-benzo[h]quinazolin-6-ylidene]amino]oxyacetonitrile]
28.3 nM	184 nM	COCCO/N=C1\c2cc(O[C@H]3CC[C@@](C)(N)CC3)ccc2-c2ncnc(N)c2C1(C)C [Example 103, (6Z)-8-(cis-4-amino-4-methyl-cyclohexoxy)-6-(2-methoxyethoxyimino)-5,5-dimethyl-benzo[h]quinazoline-4-amine]
< 1.5 nM	445 nM	CN1C[C@@H](CO/N=C2\c3cc(Cl)ccc3-c3ncnc(N)c3C2(C)C)OC1=O [Example 52, (5S)-5-[[(Z)-(4-amino-8-chloro-5,5-dimethyl-benzo[h]quinazolin-6-ylidene)amino]oxymethyl]-3-methyl-oxazolidin-2-one]
2.76 nM	207 nM	CO/N=C1\c2cc(O[C@@H]3CC[C@@H](N)[C@@H](F)C3)ccc2-c2ncnc(N)c2C1(C)C [Example 57, (6Z)-6-methoxyimino-5,5-dimethyl-8-[-(1R,3S,4R)-4-amino-3-fluoro-cyclohexoxy]benzo[h]quinazolin-4-amine]
84.8 nM	> 2000 nM	CO/N=C1\c2cc(OC)cc(F)c2-c2ncnc(N)c2C1(C)C [Example 77, (6Z)-10-fluoro-8-methoxy-6-methoxyimino-5,5-dimethyl-benzo[h]quinazolin-4-amine]
59 nM	> 2000 nM	CC1(C)/C(=N/OC[C@H]2CNC(=O)O2)c2cc(O[C@H]3CC[C@H](N)CC3)ccc2-c2ncnc(N)c21 [Example 37, (5R)-5-[[(Z)-[4-amino-8-(trans-4-aminocyclohexoxy)-5,5-dimethyl-benzo[h]quinazolin-6-ylidene]amino]oxymethyl]oxazolidin-2-one]
7.26 nM	511 nM	CC1(C)/C(=N/OC[C@@H]2CNC(=O)O2)c2cc(Br)ccc2-c2ncnc(N)c21 [Example 51, (5S)-5-[[(Z)-(4-amino-8-bromo-5,5-dimethyl-benzo[h]quinazolin-6-ylidene)amino]oxymethyl]oxazolidin-2-one]
77.3 nM	443 nM	C=C(c1ccc2c(c1)/C(=N/OC)C(C)(C)c1c(N)ncnc1-2)[C@H]1CC[C@H](N)CC1 [Example 47, (6E)-8-[1-(trans-4-aminocyclohexyl)vinyl]-6-methoxyimino-5,5-dimethyl-benzo[h]quinazolin-4-amine]
28.9 nM	71.7 nM	CC1(C)/C(=N/OCCC(F)(F)F)c2cc(O[C@H]3CC[C@@H](N)CC3)ccc2-c2ncnc(N)c21 [Example 116, (6Z)-8-(cis-4-aminocyclohexoxy)-5,5-dimethyl-6-(3,3,3-trifluoropropoxyimino)benzo[h]quinazoline-4-amine]
76.2 nM	1580 nM	COC(=O)CO/N=C1\c2cc(O[C@H]3CC[C@H](N)CC3)ccc2-c2ncnc(N)c2C1(C)C [Example 31, methyl 2-[(Z)-[4-amino-8-(trans-4-aminocyclohexoxy)-5,5-dimethyl-benzo[h]quinazolin-6-ylidene]amino]oxyacetate]
< 1.5 nM	194 nM	CN1C[C@@H](CO/N=C2\c3cc(Br)ccc3-c3ncnc(N)c3C2(C)C)OC1=O [Example 53, (5S)-5-[[(Z)-(4-amino-8-bromo-5,5-dimethyl-benzo[h]quinazolin-6-ylidene)amino]oxymethyl]-3-methyl-oxazolidin-2-one]
